Drawing on ChEMBL document CHEMBL1129930, “Analogues of methotrexate in rheumatoid arthritis. 2. Effects of 5-deazaaminopterin, 5,10-dideazaaminopterin, and analogues on type II collagen-induced arthritis in mice” (J Med Chem, 1997), this text covers Paw swelling, Animals and IC50 for two compounds.

Assay [1] relates to Mus musculus. The assay can be described thus: Tested for antiinflammatory activity on mouse type II collagen arthritis as Paw swelling* of all animals in each group on day 44 at intraperitoneal dose of 18 mg/kg. The assay is classed as functional.
For assay [2], the system named is Mus musculus. As to the kind of experiment: Incidence of disease (mouse type II collagen) was scored as the percentage of animals within each experimental group that exhibited joint or limb inflammation on day 23 at intraperitoneal dose 12 mg/kg. The assay is classed as functional.
For assay [3], the system named is Mus musculus. The assay can be described thus: Incidence of disease (mouse type II collagen) was scored as the percentage of animals within each experimental group that exhibited joint or limb inflammation on day 44 at intraperitoneal of dose 6 mg/kg. The assay is classed as functional.
The test system of assay [4] is Mus musculus. The assay can be described thus: Incidence of disease (mouse type II collagen) was scored as the percentage of animals within each experimental group that exhibited joint or limb inflammation on day 44 at intraperitoneal of dose 12 mg/kg. The assay is classed as functional.
For assay [5], the system named is Mus musculus. As to the kind of experiment: Tested for antiinflammatory activity on mouse type II collagen arthritis as Paw swelling* of all animals in each group on day 23 at intraperitoneal dose of 6 mg/kg. The assay is classed as functional.
In assay [6] the test system is Mus musculus. The assay can be described thus: Tested for antiinflammatory activity on mouse type II collagen arthritis as Paw swelling* of all animals in each group on day 30 at intraperitoneal dose of 18 mg/kg. The assay is classed as functional.
Assay [7] concerns Mus musculus. The assay can be described thus: Incidence of disease (mouse type II collagen) was scored as the percentage of animals within each experimental group that exhibited joint or limb inflammation on day 23 at intraperitoneal dose 18 mg/kg. The assay is classed as functional.
Assay [8] in a line: Concentration required to inhibit the growth of chang liver cells. To be noted: Homo sapiens. The assay is classed as functional.
Assay [9] concerns Mus musculus. As to the kind of experiment: Tested for antiinflammatory activity on mouse type II collagen arthritis as Paw swelling* of all animals in each group on day 37 at intraperitoneal dose of 12 mg/kg. The assay is classed as functional.
For assay [10], the system named is Mus musculus. The assay can be described thus: Tested for antiinflammatory activity on mouse type II collagen arthritis as Paw swelling* of all animals in each group on day 30 at intraperitoneal dose of 12 mg/kg. The assay is classed as functional.
Assay [11] concerns Mus musculus. The assay can be described thus: Incidence of disease (mouse type II collagen) was scored as the percentage of animals within each experimental group that exhibited joint or limb inflammation on day 30 at intraperitoneal of dose 12 mg/kg. The assay is classed as functional.
Assay [12] concerns Mus musculus. As to the kind of experiment: Incidence of disease (mouse type II collagen) was scored as the percentage of animals within each experimental group that exhibited joint or limb inflammation on day 30 at intraperitoneal of dose 18 mg/kg. The assay is classed as functional.
Assay [13] concerns Mus musculus. As to the kind of experiment: Tested for antiinflammatory activity on mouse type II collagen arthritis as Paw swelling* of all animals in each group on day 30 at intraperitoneal dose of 6 mg/kg. The assay is classed as functional.
The test system of assay [14] is Mus musculus. The assay can be described thus: Incidence of disease (mouse type II collagen) was scored as the percentage of animals within each experimental group that exhibited joint or limb inflammation on day 37 at intraperitoneal of dose 6 mg/kg. The assay is classed as functional.
In assay [15] the test system is Mus musculus. As to the kind of experiment: Incidence of disease (mouse type II collagen) was scored as the percentage of animals within each experimental group that exhibited joint or limb inflammation on day 37 at intraperitoneal of dose 18 mg/kg. The assay is classed as functional.
In assay [16] the test system is Mus musculus. As to the kind of experiment: Tested for antiinflammatory activity on mouse type II collagen arthritis as Paw swelling* of all animals in each group on day 44 at intraperitoneal dose of 12 mg/kg. The assay is classed as functional.
Assay [17] has as its system Mus musculus. The assay can be described thus: Tested for antiinflammatory activity on mouse type II collagen arthritis as Paw swelling* of all animals in each group on day 23 at intraperitoneal dose of 18 mg/kg. The assay is classed as functional.
Assay [18] relates to Mus musculus. As to the kind of experiment: Tested for antiinflammatory activity on mouse type II collagen arthritis as Paw swelling* of all animals in each group on day 23 at intraperitoneal dose of 12 mg/kg. The assay is classed as functional.
The test system of assay [19] is Mus musculus. The assay can be described thus: Tested for antiinflammatory activity on mouse type II collagen arthritis as Paw swelling* of all animals in each group on day 44 at intraperitoneal dose of 6 mg/kg. The assay is classed as functional.
Assay [20] concerns Mus musculus. As to the kind of experiment: Tested for antiinflammatory activity on mouse type II collagen arthritis as Paw swelling* of all animals in each group on day 37 at intraperitoneal dose of 6 mg/kg. The assay is classed as functional.
Assay [21] has as its system Mus musculus. As to the kind of experiment: Incidence of disease (mouse type II collagen) was scored as the percentage of animals within each experimental group that exhibited joint or limb inflammation on day 44 at intraperitoneal of dose 18 mg/kg. The assay is classed as functional.
The subject of assay [22] is Mus musculus. As to the kind of experiment: Incidence of disease (mouse type II collagen) was scored as the percentage of animals within each experimental group that exhibited joint or limb inflammation on day 23 at intraperitoneal dose 6 mg/kg. The assay is classed as functional.
Assay [23] relates to Mus musculus. The assay can be described thus: Incidence of disease (mouse type II collagen) was scored as the percentage of animals within each experimental group that exhibited joint or limb inflammation on day 37 at intraperitoneal of dose 12 mg/kg. The assay is classed as functional.
Assay [24] has as its system Mus musculus. As to the kind of experiment: Tested for antiinflammatory activity on mouse type II collagen arthritis as Paw swelling* of all animals in each group on day 37 at intraperitoneal dose of 18 mg/kg. The assay is classed as functional.
Assay [25] concerns Mus musculus. As to the kind of experiment: Incidence of disease (mouse type II collagen) was scored as the percentage of animals within each experimental group that exhibited joint or limb inflammation on day 30 at intraperitoneal of dose 6 mg/kg. The assay is classed as functional.
The subject of the next assay is L1210. As to the kind of experiment: Concentration required to inhibit the growth of L1210 cells. The assay is classed as functional, cell-based. To be noted: Mus musculus.
Assay [26] relates to Mus musculus. As to the kind of experiment: Tested for antiinflammatory activity on mouse type II collagen arthritis as Paw swelling of all animals in each group on day 30 at intraperitoneal dose of 4.5 mg/kg. The assay is classed as functional.
For assay [27], the system named is Mus musculus. The assay can be described thus: Incidence of disease (mouse type II collagen) was scored as the percentage of animals within each experimental group that exhibited joint or limb inflammation on day 23 at intraperitoneal dose of 9 mg/kg. The assay is classed as functional.
Assay [28] concerns Mus musculus. The assay can be described thus: Incidence of disease (mouse type II collagen) was scored as the percentage of animals within each experimental group that exhibited joint or limb inflammation on day 30 at intraperitoneal dose of 4.5 mg/kg. The assay is classed as functional.
Assay [29] has as its system Mus musculus. As to the kind of experiment: Tested for antiinflammatory activity on mouse type II collagen arthritis as Paw swelling of all animals in each group on day 44 at intraperitoneal dose of 4.5 mg/kg. The assay is classed as functional.
In assay [30] the test system is Mus musculus. The assay can be described thus: Incidence of disease (mouse type II collagen) was scored as the percentage of animals within each experimental group that exhibited joint or limb inflammation on day 44 at intraperitoneal dose of 9 mg/kg. The assay is classed as functional.
The test system of assay [31] is Mus musculus. The assay can be described thus: Tested for antiinflammatory activity on mouse type II collagen arthritis as Paw swelling of all animals in each group on day 23 at intraperitoneal dose of 4.5 mg/kg. The assay is classed as functional.
Assay [32] concerns Mus musculus. As to the kind of experiment: Tested for antiinflammatory activity on mouse type II collagen arthritis as Paw swelling of all animals in each group on day 37 at intraperitoneal dose of 9 mg/kg. The assay is classed as functional.
The subject of assay [33] is Mus musculus. The assay can be described thus: Incidence of disease (mouse type II collagen) was scored as the percentage of animals within each experimental group that exhibited joint or limb inflammation on day 44 at intraperitoneal dose of 4.5 mg/kg. The assay is classed as functional.
Assay [34] concerns Mus musculus. The assay can be described thus: Tested for antiinflammatory activity on mouse type II collagen arthritis as Paw swelling of all animals in each group on day 44 at intraperitoneal dose of 9 mg/kg. The assay is classed as functional.
Assay [35] relates to Mus musculus. As to the kind of experiment: Incidence of disease (mouse type II collagen) was scored as the percentage of animals within each experimental group that exhibited joint or limb inflammation on day 37 at intraperitoneal dose of 9 mg/kg. The assay is classed as functional.
Assay [36] relates to Mus musculus. The assay can be described thus: Tested for antiinflammatory activity on mouse type II collagen arthritis as Paw swelling of all animals in each group on day 23 at intraperitoneal dose of 9 mg/kg. The assay is classed as functional.
Assay [37] deals with Mus musculus. As to the kind of experiment: Tested for antiinflammatory activity on mouse type II collagen arthritis as Paw swelling of all animals in each group on day 30 at intraperitoneal dose of 9 mg/kg. The assay is classed as functional.
The subject of assay [38] is Mus musculus. The assay can be described thus: Incidence of disease (mouse type II collagen) was scored as the percentage of animals within each experimental group that exhibited joint or limb inflammation on day 23 at intraperitoneal dose of 4.5 mg/kg. The assay is classed as functional.
The subject of assay [39] is Mus musculus. As to the kind of experiment: Tested for antiinflammatory activity on mouse type II collagen arthritis as Paw swelling of all animals in each group on day 37 at intraperitoneal dose of 4.5 mg/kg. The assay is classed as functional.
Assay [40] relates to Mus musculus. The assay can be described thus: Incidence of disease (mouse type II collagen) was scored as the percentage of animals within each experimental group that exhibited joint or limb inflammation on day 30 at intraperitoneal dose of 9 mg/kg. The assay is classed as functional.
The test system of assay [41] is Mus musculus. The assay can be described thus: Incidence of disease (mouse type II collagen) was scored as the percentage of animals within each experimental group that exhibited joint or limb inflammation on day 37 at intraperitoneal dose of 4.5 mg/kg. The assay is classed as functional.

Structures are written as SMILES.

For the compound `C#CCN(Cc1cnc2nc(N)nc(N)c2c1)c1ccc(C(=O)NC(CCC(=O)O)C(=O)O)cc1` (configuration not stated), the Paw swelling was 2.27 mm in the assay with Mus musculus [1]; 2.12 mm in the assay on Mus musculus [5]; 2.13 mm in the assay with Mus musculus [6]; 2.3 mm in the assay with Mus musculus [9]; 2.16 mm in the assay with Mus musculus [10]; 2.32 mm with Mus musculus [13]. Besides, the Paw swelling in the assay on Mus musculus [16] was 2.49 mm; with Mus musculus [17], 2.16 mm; with Mus musculus [18], 2.17 mm; in the assay on Mus musculus [19], 2.65 mm; with Mus musculus [20], 2.46 mm; in the assay with Mus musculus [24], 2.23 mm. For the same compound, the Animals in the assay with Mus musculus [2] is recorded as 0%; in the assay on Mus musculus [3], 100%; with Mus musculus [4], 75%; in the assay on Mus musculus [7] it was 0%; with Mus musculus [11], 0%; in the assay with Mus musculus [12], 0%. Further, the Animals was determined as 88% in the assay on Mus musculus [14]; 38% in the assay with Mus musculus [15]; 38% in the assay with Mus musculus [21]; 0% with Mus musculus [22]; 50% with Mus musculus [23]; 38% in the assay with Mus musculus [25]. The IC50 in assay [8] amounted to 6.3 nM; with L1210 it was 13 nM.
As for `CCC(Cc1cnc2nc(N)nc(N)c2c1C)c1ccc(C(=O)NC(CCC(=O)O)C(=O)O)cc1` (configuration not stated), the Paw swelling was 2.18 mm in the assay on Mus musculus [26]; 2.68 mm in the assay on Mus musculus [29]; 2.1 mm with Mus musculus [31]; 3.09 mm with Mus musculus [32]; 2.99 mm in the assay with Mus musculus [34]; 2.12 mm in the assay on Mus musculus [36]. Moreover, the Paw swelling in the assay on Mus musculus [37] was 2.45 mm; in the assay with Mus musculus [39], 2.32 mm. Moreover, the Animals in the assay with Mus musculus [27] is 0%; in the assay with Mus musculus [28], 12%; in the assay with Mus musculus [30] it was 88%; with Mus musculus [33], 75%; with Mus musculus [35] it was 88%; in the assay on Mus musculus [38], 0%. Also, the values for the Animals with Mus musculus [40] and in the assay on Mus musculus [41] were 50% and 38%, respectively.

The term IC50 denotes the concentration at which inhibition is half-maximal.
